Source: patent publication US20200030242A1, “ORAL DOSAGE FORM WITH DRYING AGENT FOR DELIVERY OF ACTIVE AGENT” (Entrega Inc., priority 2016, published 2020)

Assay: Surgical Bioavailability Assay
Type: in vivo, porcine model
Settings: neat active agent powder placed via surgical incision, compared to a control oral dosage form
Description: “Surgical Bioavailability Assay” as used herein refers to an assay used to determine bioavailability of an active agent using a surgical testing method. In the Surgical Bioavailability Assay, a porcine model is also used, in which the animals undergo open surgery such that oral dosage forms to be tested can be placed at regions of the intestine of interest, such as the jejunum and ileum. After administration of anesthesia, a ventral midline incision is made to gain access to the animal's abdominal cavity. The jejunum and ileum are exposed, and incisions are made to manually place the oral dosage forms being tested. After oral dosage form placement is complete, the intestinal incisions are closed, and the midline incision can also be temporarily closed. Also, access can be made for blood collection via the carotid artery or jugular vein. […] The percent bioavailability of the active agent provided with the oral dosage form is determined on the basis of the active agent levels detected in these blood samples.
Surgical Bioavailability Assay. […] The percent bioavailability of the active agent provided with the oral dosage form is determined on the basis of the active agent levels detected in these blood samples.

Row | Compound | bioavailability (FIG. 4)
1 | C[C@@H](O)[C@@H]1NC(=O)[C@H](CCCCN)NC(=O)[C@@H](Cc2c[nH]c3ccccc23)NC(=O)[C@H](Cc2ccccc2)NC(=O)[C@@H](NC(=O)[C@H](N)Cc2ccccc2)CSSC[C@@H](C(=O)N[C@H](CO)[C@@H](C)O)NC1=O [octreotide] | good bioavailability
2 | calcitonin | good bioavailability
